From patent US8822449B2, “Substituted aminoindanes and analogs thereof, and the pharmaceutical use thereof” (Sanofi, priority 2008, dated 2014)

molecular target: T1, sodium-proton exchanger of subtype 3 (NHE3) (Homo sapiens, UniProt P48764); assay: Recovery of intracellular pH (pHi) after acidification in LAP1 cells stably expressing NHE3 (BCECF fluorescence, FLIPR); format: cell-based; details: LAP1 cells stably expressing NHE3; pH recovery after acidification; range 1 is % inhibition at 10 μM; read-out: Activity range (inhibitory effect on NHE3)
T1 construct: expressed in transfected cells
T1 sequence (P48764 26-834): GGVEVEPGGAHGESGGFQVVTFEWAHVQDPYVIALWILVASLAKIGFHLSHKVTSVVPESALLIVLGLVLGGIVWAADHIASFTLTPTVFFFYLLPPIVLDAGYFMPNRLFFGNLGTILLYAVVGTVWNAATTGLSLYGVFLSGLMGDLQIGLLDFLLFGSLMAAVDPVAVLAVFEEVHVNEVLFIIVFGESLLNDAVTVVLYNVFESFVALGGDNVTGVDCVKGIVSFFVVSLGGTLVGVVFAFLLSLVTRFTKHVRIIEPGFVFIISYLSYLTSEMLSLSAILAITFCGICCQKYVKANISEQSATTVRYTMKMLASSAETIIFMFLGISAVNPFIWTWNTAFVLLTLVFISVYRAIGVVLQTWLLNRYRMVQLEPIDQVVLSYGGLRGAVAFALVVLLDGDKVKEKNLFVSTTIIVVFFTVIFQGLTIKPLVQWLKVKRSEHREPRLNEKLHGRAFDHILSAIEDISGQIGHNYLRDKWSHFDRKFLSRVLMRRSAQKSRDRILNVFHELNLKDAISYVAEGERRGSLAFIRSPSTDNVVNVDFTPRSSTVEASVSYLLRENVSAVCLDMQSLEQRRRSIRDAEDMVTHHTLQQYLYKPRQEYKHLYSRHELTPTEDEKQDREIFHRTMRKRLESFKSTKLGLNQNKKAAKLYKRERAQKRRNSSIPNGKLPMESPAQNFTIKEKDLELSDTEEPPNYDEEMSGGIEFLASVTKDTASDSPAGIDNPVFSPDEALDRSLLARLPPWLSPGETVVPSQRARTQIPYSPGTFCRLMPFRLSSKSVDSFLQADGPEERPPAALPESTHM
Experimental: In this assay, the recovery of the intracellular pH (pHi) of LAP1 cells which stably express the sodium-proton exchanger of subtype 3 (NHE3) after acidification was determined. The recovery occurs even under bicarbonate-free conditions with functional NHE3. To this end, the pHi was determined using the pH-sensitive fluorescent dye BCECF (Molecular Probes, Eugene, Oreg., USA, employing the precursors BCECF-AM). The cells were initially incubated with BCECF (5 μM BCECF-AM) in NH4Cl buffer (NH4Cl buffer: 115 mM cholineCl, 20 mM NH4Cl, 5 mM KCl, 1 mM CaCl2, 1 mM MgCl2, 20 mM Hepes, 5 mM glucose, a pH of 7.4 was adjusted with 1 M KOH). The intracellular acidification was induced by washing the cells incubated in NH4Cl buffer with NH4Cl-free buffer (133.8 mM choline chloride, 4.7 mM KCl, 1.25 mM CaCl2, 1.25 mM MgCl2, 0.97 mM K2HPO4, 0.23 mM KH2PO4, 5 mM Hepes, 5 mM glucose, a pH of 7.4 was adjusted with 1 M KOH). After the washing step, 90 μl of the NH4Cl-free buffer were left on the cells. The pH recovery was started by adding 90 μl of Na^+-containing buffer (133.8 mM NaCl, 4.7 mM KCl, 1.25 mM CaCl2, 1.25 mM MgCl2, 0.97 mM Na2HPO4, 0.23 mM NaH2PO4, 10 mM Hepes, 5 mM glucose, a pH of 7.4 was adjusted with 1 M NaOH) in a measuring instrument (FLIPR, “Fluorometric Imaging Plate Reader”, Molecular Devices, Sunnyvale, Calif., USA). The BCECF fluorescence was determined with an excitation wavelength of 498 nm and the FLIPR emission filter 1 (bandpass from 510 to 570 nm). The subsequent changes in fluorescence as a measure of pH recovery were recorded for two minutes. To calculate the NHE3-inhibitory power of the tested substances, the cells were initially investigated in buffers with which complete or absolutely no pH recovery took place. For complete pH recovery (100%), the cells were incubated in Na^+-containing buffer (see above), and to determine the 0% value were incubated in Na^+-free buffer (see above). The substances to be tested were made up in Na^+-containing buffer. The recovery of the intracellular pH at each tested concentration of a substance was expressed as percent of the maximum recovery.
The IC50 of the respective substance for NHE3 was calculated from the percentages of pH recovery using the program XLFit (idbs, Surrey, UK).

| Compound | IC50 [nM] | inhibition at 10 µM [%] |
| --- | --- | --- |
| Cc1nnc(C)n1-c1ccc(O[C@H]2c3cc(Cl)cc(Cl)c3C[C@@H]2N2CCCN(C)CC2)c(F)c1 [Example 346, 1-{trans-(1S,2S)-4,6-dichloro-1-[4-(3,5-dimethyl-[1,2,4]triazol-4-yl)-2-fluorophenoxy]indan-2-yl}-4-methyl-[1,4]diazepane] | < 1000 |  |
| Cc1nnc(C)n1-c1ccc(O[C@H]2c3cc(Cl)ccc3C[C@@H]2N2CC[C@@H](O)C2)c(Cl)c1 [Example 139, (R)-1-{trans-(1S,2S)-6-chloro-1-[2-chloro-4-(3,5-dimethyl-[1,2,4]triazol-4-yl)phenoxy]indan-2-yl}pyrrolidin-3-ol] | < 1000 |  |
| COc1cc(C#N)cc(Cl)c1O[C@H]1c2ccccc2CC[C@@H]1N1CCC[C@@H](N)C1 (racemic) [Example 512, 4-[rac-trans-(1,2)-2-((R)-3-aminopiperidin-1-yl)-1,2,3,4-tetrahydronaphthalen-1-yloxy]-3-chloro-5-methoxy-benzonitrile] |  | 20 to 50 |
| CCNS(=O)(=O)c1ccc(O[C@@H]2c3ccccc3C[C@H]2N2CCCC2)cc1 (racemic) [Example 700, N-ethyl-4-(rac-trans-(1,2)-2-pyrrolidin-1-ylindan-1-yloxy)benzenesulfonamide] | < 1000 |  |
| CN(C1CCCC1)[C@@H]1Cc2ccccc2[C@H]1Oc1ccc(S(C)(=O)=O)cc1 (racemic) [Example 730, Cyclopentyl-[rac-trans-(1,2)-1-(4-methanesulfonyl-phenoxy)-indan-2-yl]-methyl-amine] | 1000 to 10000 |  |
| CS(=O)(=O)c1ccc(O[C@H]2c3cc(Cl)cc(Cl)c3C[C@@H]2N2CC[C@@H](N3CCCC3)C2)cc1 [Example 99, (R)-1′-[trans-(1S,2S)-4,6-dichloro-1-(4-methanesulfonylphenoxy)indan-2-yl]-[1,3′]bipyrrolidinyl] | < 1000 |  |
| COc1cc(O[C@H]2c3ccccc3CC[C@@H]2N2CCC[C@@H](N)C2)ccc1Br (racemic) [Example 63, (R)-1-[rac-trans-(1,2)-1-(4-bromo-3-methoxyphenoxy)-1,2,3,4-tetrahydronaphthalen-2-yl]piperidin-3-ylamine] |  | 20 to 50 |
| COCCc1ccc(O[C@H]2c3ccccc3CC[C@@H]2N2CCC[C@H](N)C2)cc1 (racemic) [Example 202, (S)-1-{rac-trans-(1,2)-1-[4-(2-methoxyethyl)phenoxy]-1,2,3,4-tetrahydronaphthalen-2-yl}piperidin-3-ylamine] |  | 20 to 50 |
| N[C@H]1CCCN([C@H]2CCc3ccccc3[C@@H]2Oc2ccc(F)cc2)C1 (racemic) [Example 179, (S)-1-[rac-trans-(1,2)-1-(4-fluorophenoxy)-1,2,3,4-tetrahydronaphthalen-2-yl]piperidin-3-ylamine] |  | 20 to 50 |
| N#Cc1ccc(O[C@H]2c3ccccc3C[C@@H]2CN2CCCC2)cc1Cl (racemic) [Example 391, 2-chloro-4-(2-pyrrolidin-1-ylmethylindan-1-yloxy)benzonitrile] |  | 20 to 50 |
| COc1cccc(F)c1O[C@@H]1c2ccccc2C[C@H]1N(C)C1CCNCC1 (racemic) [Example 215, [rac-trans-(1,2)-1-(2-fluoro-6-methoxyphenoxy)indan-2-yl]methylpiperidin-4-ylamine] | 1000 to 10000 |  |
| Cc1nnc(C)n1-c1ccc(O[C@H]2c3cc(Cl)ccc3C[C@@H]2N2CC[C@@H](O)C2)c(F)c1 [Example 143, (R)-1-{trans-(1S,2S)-6-chloro-1-[4-(3,5-dimethyl-[1,2,4]triazol-4-yl)-2-fluorophenoxy]indan-2-yl}pyrrolidin-3-ol] | < 1000 |  |
| COCCc1ccc(O[C@@H]2c3ccccc3C[C@H]2N2C[C@H]3CNC[C@H]3C2)cc1 (racemic) [Example 19, 2-{rac-trans-(1,2)-1-[4-(2-methoxyethyl)phenoxy]indan-2-yl}octahydropyrrolo[3,4-c]pyrrole] | 1000 to 10000 |  |
| Cc1cc2c(O[C@H]3c4ccccc4CC[C@@H]3N3CCOCC3)cccc2[nH]1 (racemic) [Example 399, 2-methyl-4-(rac-trans-(1,2)-2-morpholin-4-yl-1,2,3,4-tetrahydronaphthalen-1-yloxy)-1H-indole] |  | 20 to 50 |
| NC(=O)c1ccc(O[C@@H]2c3ccccc3C[C@H]2N2CCC[C@@H](N)C2)cc1 (racemic) [Example 525, 4-[rac-trans-(1,2)-2-((R)-3-aminopiperidin-1-yl)indan-1-yloxy]benzamide] | 1000 to 10000 |  |
| Cc1nnc(C)n1-c1ccc(O[C@H]2c3ccccc3C[C@@H]2N2CCC[C@@H](N)C2)cc1 [Example 121, (R)-1-{trans-(1S,2S)-1-[4-(3,5-dimethyl-[1,2,4]triazol-4-yl)phenoxy]indan-2-yl}piperidin-3-ylamine] | 1000 to 10000 |  |

| Compound | IC50 [nM] | inhibition at 10 µM [%] |
| --- | --- | --- |
| N[C@H]1CCCN([C@@H]2Cc3ccccc3[C@H]2Oc2cccc(N3CCNCC3)c2)C1 (racemic) [Example 169, (S)-1-[rac-trans-(1,2)-1-(3-piperazin-1-ylphenoxy)indan-2-yl]piperidin-3-ylamine] | < 1000 |  |
| CS(=O)(=O)c1ccc(CO[C@H]2c3cc(Cl)cc(Cl)c3C[C@@H]2N2CC[C@@H](O)C2)c(Cl)c1 [Example 24, (R)-1-[(1S,2S)-4,6-dichloro-1-(2-chloro-4-methanesulfonylbenzyloxy)indan-2-yl]pyrrolidin-3-ol] |  | 20 to 50 |
| N[C@H]1CCCN([C@H]2CCc3ccccc3[C@@H]2Oc2ccc(C(F)(F)F)cc2)C1 (racemic) [Example 186, (S)-1-[rac-trans-(1,2)-1-(4-trifluoromethylphenoxy)-1,2,3,4-tetrahydronaphthalen-2-yl]piperidin-3-ylamine] |  | 20 to 50 |
| O=C(O)c1ccc(O[C@H]2c3ccccc3C[C@@H]2CN2CCCC2)cc1Cl (racemic) [Example 390, 2-chloro-4-(2-pyrrolidin-1-ylmethylindan-1-yloxy)benzoic acid] |  | 20 to 50 |
| NC(=O)c1ccccc1O[C@H]1c2ccccc2CC[C@@H]1N1CCC[C@H](N)C1 (racemic) [Example 373, 2-[rac-trans-(1,2)-2-((S)-3-aminopiperidin-1-yl)-1,2,3,4-tetrahydronaphthalen-1-yloxy]benzamide] | < 1000 |  |
| Cc1c(Cl)cccc1O[C@H]1c2ccccc2CC[C@@H]1N1CCC[C@H](N)C1 (racemic) [Example 160, (S)-1-[rac-trans-(1,2)-1-(3-chloro-2-methylphenoxy)-1,2,3,4-tetrahydronaphthalen-2-yl]piperidin-3-ylamine] |  | 20 to 50 |
| N[C@@H]1CCCN([C@@H]2Cc3ccccc3[C@H]2Oc2ccc3ccncc3c2)C1 (racemic) [Example 85, (R)-1-[rac-trans-(1,2)-1-(isoquinolin-7-yloxy)indan-2-yl]piperidin-3-ylamine] | 1000 to 10000 |  |
| NS(=O)(=O)c1ccc(O[C@H]2c3cc(Cl)cc(Cl)c3C[C@@H]2N2CCOCC2)c(Cl)c1Cl (racemic) [Example 358, 2,3-dichloro-4-(rac-trans-(1,2)-4,6-dichloro-2-morpholin-4-ylindan-1-yloxy)benzenesulfonamide] | 1000 to 10000 |  |
| N#Cc1ccc(O[C@@H]2c3ccccc3C[C@H]2N2CCC[C@@H](N)C2)cc1F (racemic) [Example 522, 4-[rac-trans-(1,2)-2-((R)-3-aminopiperidin-1-yl)indan-1-yloxy]-2-fluorobenzonitrile] | 1000 to 10000 |  |
| N[C@H]1CCCN([C@H]2CCc3ccccc3[C@@H]2Oc2ccc(Cl)cc2)C1 (racemic) [Example 175, (S)-1-[rac-trans-(1,2)-1-(4-chlorophenoxy)-1,2,3,4-tetrahydronaphthalen-2-yl]piperidin-3-ylamine] |  | 20 to 50 |
| CC(=O)Nc1cccc(O[C@H]2c3ccccc3C[C@@H]2N2CCC[C@@H](NCCC(F)(F)F)C2)c1 [Example 632, N-(3-{trans-(1S,2S)-2-[(R)-3-(3,3,3-trifluoropropylamino)piperidin-1-yl]indan-1-yloxy}-phenyl)acetamide] | < 1000 |  |
| NCC1CCN([C@@H]2Cc3ccccc3[C@H]2Oc2cccc3[nH]ccc23)C1 (mixture of isomers) [Example 601, C-{1-[rac-trans-(1,2)-1-(1H-indol-4-yloxy)indan-2-yl]pyrrolidin-3-yl}methylamine] | 1000 to 10000 |  |
| NC(=O)c1ccc(O[C@@H]2c3ccccc3C[C@H]2N2CCC[C@H](N)C2)cc1 (racemic) [Example 537, 4-[rac-trans-(1,2)-2-((S)-3-aminopiperidin-1-yl)indan-1-yloxy]benzamide] | 1000 to 10000 |  |
| NC1CCN([C@@H]2Cc3ccccc3[C@H]2Oc2ccc3cc[nH]c3c2)C1 (mixture of isomers) [Example 262, 1-[rac-trans-(1,2)-1-(1H-indol-6-yloxy)indan-2-yl]pyrrolidin-3-ylamine] | 1000 to 10000 |  |
| CN1CCN(c2ccc(F)c(O[C@H]3c4cc(Cl)cc(Cl)c4C[C@@H]3N3CC[C@@H](O)C3)c2)C1=O [Example 314, 1-{3-[(1S,2S)-4,6-dichloro-2-((R)-3-hydroxypyrrolidin-1-yl)indan-1-yloxy]-4-fluorophenyl}-3-methylimidazolidin-2-one] | < 1000 |  |
